Results from PubChem BioAssay AID2060483 (Molecular Pharmacology Branch, DTP, NCI, 2025).

System: K24384-001-R-PDC complex spheroids, viability
Test: Anticancer human tumor K24384-001-R-PDC patient-derived pancreatic adenocarcinoma cell line growth inhibition [GQUAD]
Settings: for IC50: curve of first compound; for viability, T/C: stronger effect = lower value
Excerpt: DNA G-quadruplex Stabilizer Agents in Combinations in Complex Spheroids
A high-throughput screen of multi-cell type tumor spheroids was designed to identify active combinations of DNA G-quadruplex stabilizer agents and targeted small molecules. Complex spheroids include a stromal component modeled by human endothelial cells (HUVEC) and fibroblasts modeled by human mesenchymal stem cells (MSCs). The concentration ranges selected for each drug and investigational agent were based upon clinically achievable concentrations if the clinical Cmax of the agent was known.
Compounds. The drugs and investigational agents: pidnarulex (CX-5461; NSC782164), APTO-253 (NSC789042), BRACO-19 (NSC847499), peposertib (NSC802822), ceralasertib (NSC780249), elimusertib (NSC800525), camonsertib (NSC841442), AZD-1390 (NSC803789), olaparib (NSC753686), talazoparib (NSC767125), ART-558 (NSC835418), sotorasib (NSC818433), MRTX-1133 (NSC836407), SN-38 (NSC673596), topotecan (NSC609699), etoposide (NSC141540), doxorubicin (NSC123127), gemcitabine (NSC613327), 5-fluorouracil (NSC19893), paclitaxel (NSC125973), vemurafenib (NSC761431), panobinostat (NSC761190), R-306465 (JNJ-16241199; NSC773264), adavosertib (NSC754352), TP-3654 (NSC805149), carboplatin (NSC241240), KSQ-4279 (NSC840948), and staurosporine (NSC755774) were obtained from the National Cancer Institute (NCI) Developmental Therapeutics Program Chemical Repository (34). The FDA-approved anticancer drug set is available from the NCI Developmental Therapeutics Program. […] The stock solutions were prepared in dimethyl sulfoxide (DMSO, Sigma-Aldrich, St. Louis, MO, cat. D2650) at 800-fold the tested concentration and stored at -70 degrees C prior to their use. All drugs and investigational agents were tested over a range starting from a high concentration at or near the clinical Cmax and decreasing in half-log increments. If the clinical Cmax for an agent had not been determined, the highest concentration tested was 10 microM.
2.3 Cell Culture. All cells were maintained in an incubator at 37 degrees C and 5% CO2 with 95% humidity. The PDC lines were cultured according to standard operating procedures established by the NCI PDMR. All PDCs were thawed and cultured in Matrigel-coated flasks prepared with a working solution of 1X Ham's F-12 nutrient mix, without supplementation (Invitrogen, cat. 11765054), 100 U/mL penicillin-streptomycin (Invitrogen, cat. 15140122), and 2.5% Matrigel (Corning Inc., cat. 354248) for the first three passages. The 857933-349-R-J2-PDC line was cultured in 6C/Colon 1B media, which includes advanced DMEM/F-12 (Thermo Fisher Scientific, cat. 12634028), 10 mM HEPES (Thermo Fisher Scientific, cat. 15630080), 1X GlutaMAX supplement (Thermo Fisher Scientific, cat. 35050061), 0.1 mg/mL primocin (InvivoGen, cat. ant-pm-2), 10% defined fetal bovine serum, heat inactivated (HyClone Laboratories Inc., cat. SH30070.03HI), 50% L-WRN conditioned media (ATCC, cat. CRL-3276), 1.25 mM N-Acetyl-L-cysteine (Sigma-Aldrich, cat. A9165), 10 mM nicotinamide (Sigma-Aldrich, cat. N0636), 1X B-27 supplement (Thermo Fisher Scientific, cat. 17504044), 1X N-2 supplement (Thermo Fisher Scientific, cat. 17502048), 10 microM Y-27632 dihydrochloride (Tocris Bioscience, cat. 1254), and 50 ng/mL human EGF recombinant protein (Thermo Fisher Scientific, cat. PHG0311). The 485176-168-R4-J1-PDC line was cultured in Panc media, which includes all 6C/Colon 1B media components plus 100 ng/mL human FGF-10 (Thermo Fisher Scientific, cat. 100-26), 500 nM SB-431542 (Selleckchem, cat. S1067), and gastrin (Tocris, cat. 3006).
[…]
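Further: spheroids exposed to compounds for seven days.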

Compound `CCc1c2c(nc3ccc(O)cc13)-c1cc3c(c(=O)n1C2)COC(=O)[C@]3(O)CC` + CN(C)c1ccc(Nc2c3ccc(NC(=O)CCN4CCCC4)cc3nc3cc(NC(=O)CCN4CCCC4)ccc23)cc1 has an IC50 (second compound 0.0316 µM) of 7.33 nM, an IC50 (second compound 0.1 µM) of 8.91 nM and an IC50 (second compound 0.316 µM) of 5.68 nM. For the same compound, the IC50 (second compound 1 µM) was 5.64 nM, the IC50 (second compound 3.16 µM) was 3.47 nM and the IC50 (second compound 10 µM) was 16.2 nM. The viability, T/C (second compound 0.0316 µM, first compound 0.000999 µM) was 80.2%, the viability, T/C (second compound 0.0316 µM, first compound 0.00316 µM) was 78.2% and the viability, T/C (second compound 0.0316 µM, first compound 0.00999 µM) was 39.6%. For the same compound, the viability, T/C (second compound 0.0316 µM, first compound 0.0316 µM) was 32.2%, the viability, T/C (second compound 0.0316 µM, first compound 0.0999 µM) was 35.4% and the viability, T/C (second compound 0.0316 µM, first compound 0.316 µM) was 30.3%. For the same compound, the viability, T/C (second compound 0.1 µM, first compound 0.000999 µM) was 69.6%, the viability, T/C (second compound 0.1 µM, first compound 0.00316 µM) was 62.7% and the viability, T/C (second compound 0.1 µM, first compound 0.00999 µM) was 49.7%. The viability, T/C (second compound 0.1 µM, first compound 0.0316 µM) was 34.2%, the viability, T/C (second compound 0.1 µM, first compound 0.0999 µM) was 36.1% and the viability, T/C (second compound 0.1 µM, first compound 0.316 µM) was 32.3%. The viability, T/C (second compound 0.316 µM, first compound 0.000999 µM) was 73.2%, the viability, T/C (second compound 0.316 µM, first compound 0.00316 µM) was 65.2% and the viability, T/C (second compound 0.316 µM, first compound 0.00999 µM) was 35.2%. The viability, T/C (second compound 0.316 µM, first compound 0.0316 µM) was 42.8%, the viability, T/C (second compound 0.316 µM, first compound 0.0999 µM) was 33.6% and the viability, T/C (second compound 0.316 µM, first compound 0.316 µM) was 26.3%. For the same compound, the viability, T/C (second compound 1 µM, first compound 0.000999 µM) was 69.8%, the viability, T/C (second compound 1 µM, first compound 0.00316 µM) was 58.2% and the viability, T/C (second compound 1 µM, first compound 0.00999 µM) was 39.9%. It also gave a viability, T/C (second compound 1 µM, first compound 0.0316 µM) of 39.9%, a viability, T/C (second compound 1 µM, first compound 0.0999 µM) of 28.6% and a viability, T/C (second compound 1 µM, first compound 0.316 µM) of 28%. The viability, T/C (second compound 3.16 µM, first compound 0.000999 µM) was 82.3%, the viability, T/C (second compound 3.16 µM, first compound 0.00316 µM) was 51.2% and the viability, T/C (second compound 3.16 µM, first compound 0.00999 µM) was 37%. It also gave a viability, T/C (second compound 3.16 µM, first compound 0.0316 µM) of 37.5%, a viability, T/C (second compound 3.16 µM, first compound 0.0999 µM) of 34% and a viability, T/C (second compound 3.16 µM, first compound 0.316 µM) of 30.9%. The viability, T/C (second compound 10 µM, first compound 0.000999 µM) was 70.7%, the viability, T/C (second compound 10 µM, first compound 0.00316 µM) was 61.2% and the viability, T/C (second compound 10 µM, first compound 0.00999 µM) was 59.4%. It also gave a viability, T/C (second compound 10 µM, first compound 0.0316 µM) of 37.3%, a viability, T/C (second compound 10 µM, first compound 0.0999 µM) of 36.6% and a viability, T/C (second compound 10 µM, first compound 0.316 µM) of 32.8%.
